Reference: publication PMC3179504 (PLoS ONE, 2011)
Entries after “also recorded” stand apart in the source; their conditions may differ.

How the values were obtained:
HEK293-NK1R cells = test: SP-induced membrane blebbing in HEK293-NK1R cells (phase-contrast / DIC / confocal microscopy); assay type: cell-based; settings: for effect of colchicine on SP-induced blebbing: colchicine pretreatment
RhoA = settings: microtubule depolymerizing reagent; ref [24], [25]; cited from earlier work
From the text: (§1) It has been shown that Rho GTPases are regulated by microtubule dynamics. […] One of the major intracellular signaling molecules involved in the regulation of tubulin function is p21- activated kinase 1 (PAK), which interacts with a variety of other proteins ...

T cells = settings: ref [26]; cited from earlier work
From the text: as §1

[1] = system: myosin light chain 2 (MLC2) (Ser19); assay type: cell-based, human
Method: Cells were lysed in lithium dodecyl sulfate (LDS) sample buffer (Invitrogen, Carlsbad, CA), and lysed using a sonic dismembrator model 100 (Fisher Scientific, Hampton, NH). Cell extracts were subjected to LDS polyacrylamide gel electrophoresis and transferred to polyvinylidene difluoride membranes. After blocking with 5% nonfat dry milk in 0.1% Tween 20/TBS, membranes were incubated with the primary antibody. […] The following non phospho-specific antibodies were used: Beta-Actin and PAK1/2/3 (Cell Signaling Technology, Beverly, MA). Secondary antibodies conjugated to horseradish peroxidase were either anti-rabbit (Biorad, Hercules, CA), or anti-mouse (Cell Signaling Technology, Beverly, MA). Bands were visualized by enhanced chemiluminescence using SuperSignal® West Pico Chemiluminescent Substrate (Thermo Scientific, Rockford, IL) on a VersaDoc Imager (BioRad, Hercules, CA).

## Oc1ccc2ccccc2c1SSc1c(O)ccc2ccccc12 [IPA3, 1, 1′-Dithiodi-2-naphthtol]
HEK293-NK1R cells; IPA3 pretreatment, phase-contrast
  effect of IPA3 on SP-induced blebbing: not in HEK293 cells; also recorded: no effect on HEK293- NK1R cell's ability to bleb

## COC(=O)Nc1nc2ccc(C(=O)c3cccs3)cc2[nH]1 [Nocodazole]
RhoA
  RhoA activation by nocodazole: induces RhoA activation
T cells
  effect of nocodazole on T cell migratory phenotype: converts T cells from the classical lamellipodial/uropod migratory phenotype to a blebbing migratory phenotype

## COc1cc2c(c(OC)c1OC)-c1ccc(OC)c(=O)cc1[C@@H](NC(C)=O)CC2 [colchicine]
HEK293-NK1R cells; colchicine
  cell morphology after colchicine: causing the cells to appear less adherent and to round up
HEK293-NK1R cells
  effect of colchicine on SP-induced blebbing: not able to block the SP-induced blebbing
HEK293-NK1R cells; listed as Colchicine
  effect of colchicine on SP-induced blebbing: unable to block bleb formation

## C3 transferase
[1]
  effect of C3 transferase on MLC phosphorylation: decrease in MLC phosphorylation
